Assay results taken from US9266890B2, “Pyrimido-diazepinone kinase scaffold compounds and methods of treating disorders” (Dana-Farber Cancer Institute, Inc., priority 2009, dated 2016).

These molecules were tested against Mps1 (TTK) (Homo sapiens (Human), UniProt P33981) (assay: Mps1 (TTK) Cellular Assay - Mitotic Escape Assay). Conditions: Hela cells arrested with thymidine then nocodazole (0.33 μM); compound 0.25-10 uM for 2 hrs.
Assay type: cell-based
Procedure: FIG. 1. […] Hela cells were arrested in mitosis using the following protocol. Cells were treated with thymidine (2.5 mM) for 24 hours. Cells were released into medium containing nocodazole (0.33 μM). After 16 hrs. cells were treated with I-10 a range of concentrations (0.25, 0.5, 1, 2, 5 and 10 uM) shown above for 2 hrs. Cells were harvested and the levels of cyclin B (a marker for mitosis) were determined by immunoblot. High cyclin B levels indicated mitotic cells, while low cyclin B levels indicate cells have exited nocodazole-induced mitotic arrest.
Hela (or U2OS cells) were plated at roughly 30-35% cell density. After 24 hours the medium* was removed and fresh medium supplemented with 2.5 mM thymidine was added to arrest cells at the G1/S transition. After 24 hours in thymidine block the medium was removed, the cells were washed 3× with PBS and replaced with medium supplemented with 330 nM nocodazole (Noc). The cells were incubated with nocodazole for 16-18 hours to produce a mitotic arrest. […] After 2 hours, the cells were harvested, lysed in RIPA buffer, and the levels of cyclin B or phosphorylated Histone 3 (Ser10) determined by western blotting. Alternatively, cells were treated on coverslips, fixed, and phosphorylated Histone 3 levels determined by immunofluorescence. […]

Mps1 (TTK), sequence (P33981 whole entry): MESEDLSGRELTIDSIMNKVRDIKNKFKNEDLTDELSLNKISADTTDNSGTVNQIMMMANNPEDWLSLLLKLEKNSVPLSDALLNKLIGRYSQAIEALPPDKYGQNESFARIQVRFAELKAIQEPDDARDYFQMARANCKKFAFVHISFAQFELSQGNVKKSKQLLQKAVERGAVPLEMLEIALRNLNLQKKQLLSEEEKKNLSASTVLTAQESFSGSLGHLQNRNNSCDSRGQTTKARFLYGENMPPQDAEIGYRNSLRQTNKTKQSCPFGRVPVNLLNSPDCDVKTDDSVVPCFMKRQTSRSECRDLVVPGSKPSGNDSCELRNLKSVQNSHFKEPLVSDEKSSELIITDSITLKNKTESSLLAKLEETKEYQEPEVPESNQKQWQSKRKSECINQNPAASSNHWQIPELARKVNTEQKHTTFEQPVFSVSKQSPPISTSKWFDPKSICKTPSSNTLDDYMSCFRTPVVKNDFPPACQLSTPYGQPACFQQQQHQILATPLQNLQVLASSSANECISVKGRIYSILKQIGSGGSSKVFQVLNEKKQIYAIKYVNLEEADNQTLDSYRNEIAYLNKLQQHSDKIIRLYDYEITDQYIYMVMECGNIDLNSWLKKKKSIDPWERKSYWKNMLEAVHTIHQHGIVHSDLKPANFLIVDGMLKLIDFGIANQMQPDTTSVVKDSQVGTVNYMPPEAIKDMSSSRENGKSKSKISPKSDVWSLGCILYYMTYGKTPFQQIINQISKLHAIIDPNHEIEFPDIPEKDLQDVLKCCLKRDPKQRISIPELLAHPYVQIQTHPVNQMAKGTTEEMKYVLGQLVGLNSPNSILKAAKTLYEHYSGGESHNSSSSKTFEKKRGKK

Row | Compound | escape from mitosis (cyclin B levels by immunoblot)
1 | CCOc1cc(N2CCC(O)CC2)ccc1Nc1ncc2c(n1)N(C1CCCC1)CCC(=O)N2C [Compound I-10] | induces escape from mitosis

What follows are molecules tested against Plk1 (Homo sapiens (Human), UniProt P53350) (assay: Plk1 Cellular Assay - Mitotic Arrest Assay). Conditions: Hela cells, immunofluorescence microscopy, 24 hours post-treatment.
Assay type: cell-based
Procedure: FIG. 2. […] Using immunofluorescence microscopy the cells were located by their DNA stain (Hoechst) and were then scored for phospho H3 positivity. Cells that are arrested in mitosis are phospho H3 positive.
Hela cells were plated at roughly 80% cell density on poly-lysine coated glass coverslips. After 24 hours the medium* was removed and fresh medium supplemented with test compounds was added. Twenty-four hours post-treatment the medium was removed, the coverslips were washed once with phosphate-buffered saline (PBS), pH 7.4 and the cells fixed for 10 minutes at room temperature using the following fixative solution: 100 mM K-Pipes, pH 6.8, 10 mM EGTA, 1 mM MgCl2, 0.2% Triton X-100, 3% formaldehyde. The coverslips were washed 3× with Tris-buffered saline solution (50 mM Tris-HCl pH 7.4, 150 mM NaCl) containing 0.1% Triton X-100 (TBST). The samples were blocked using 2% bovine serum albumin (BSA) in TBST. The samples were then incubated with a phosphorylation-specific antibody against histone 3 (phospho H3) serine-10 (Upstate, 1:500-1:1000) in blocking solution. Cells can also optionally be stained for tubulin as well using appropriate antibodies. After a 2-hr. incubation at room temperature (or 4° C. overnight), the samples were washed 3× with TBST. The samples were then incubated with an appropriate secondary antibody in blocking solution for 1-2 hrs at room temperature (or 4° C. overnight). […] The samples were washed 3× with TBST and mounted onto glass slides using Prolong Gold Antifade Reagent (Invitrogen). See FIGS. 2 and 3. *Hela/U2OS medium—Dulbecco's Modified Eagle's Medium (DMEM, Sigma), 10% fetal bovine serum, 1% penicillin/streptomycin

Plk1, sequence (P53350 whole entry): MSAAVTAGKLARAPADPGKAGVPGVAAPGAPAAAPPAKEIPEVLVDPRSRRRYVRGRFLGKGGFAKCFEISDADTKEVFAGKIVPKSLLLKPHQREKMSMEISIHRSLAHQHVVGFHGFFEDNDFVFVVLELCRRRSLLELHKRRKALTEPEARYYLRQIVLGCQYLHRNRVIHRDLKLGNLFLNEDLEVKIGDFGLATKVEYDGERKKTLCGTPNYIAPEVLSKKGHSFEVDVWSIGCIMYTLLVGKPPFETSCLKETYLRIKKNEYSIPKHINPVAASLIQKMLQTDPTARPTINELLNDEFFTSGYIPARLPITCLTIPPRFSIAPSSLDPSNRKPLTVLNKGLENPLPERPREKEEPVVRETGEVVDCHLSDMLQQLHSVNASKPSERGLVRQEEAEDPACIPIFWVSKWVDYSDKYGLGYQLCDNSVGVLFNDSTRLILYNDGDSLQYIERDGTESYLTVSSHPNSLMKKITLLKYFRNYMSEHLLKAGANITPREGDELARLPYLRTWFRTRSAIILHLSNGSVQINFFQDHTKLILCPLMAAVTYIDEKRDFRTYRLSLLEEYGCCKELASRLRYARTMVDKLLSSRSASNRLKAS

Row | Compound | mitotic arrest (phospho H3 positivity)
2 | COc1cc(N(C)CCCO)ccc1Nc1ncc2c(n1)N(C1CCCC1)CCC(=O)N2C [Compound I-8] | do not
3 | COc1cc(N(C)CCO)ccc1Nc1ncc2c(n1)N(C1CCCC1)CCC(=O)N2C [Compound I-7] | do not
4 | COc1cc(N2CCC(O)CC2)ccc1Nc1ncc2c(n1)N(C1CCCC1)CCC(=O)N2C [Compound I-6] | do not
5 | COc1cc(C(=O)NC2CCN(C)CC2)ccc1Nc1ncc2c(n1)N(C1CCCC1)C(C)CC(=O)N2C (stereo not drawn) [Compound I-4] | induce a strong mitotic arrest
6 | COc1cc(C(=O)NC2CCN(C)CC2)ccc1Nc1ncc2c(n1)N(C1CCCC1)CC(C)C(=O)N2C (stereo not drawn) [Compound I-5] | induce a strong mitotic arrest
